# Measurements: patent US12209081B2 (Katholieke Universiteit Leuven, priority 2020, dated 2025)
# Target: mouse TRPM3α2 (mTRPM3) ion channel (Mus musculus (Mouse), UniProt J9SQF3)
# Test: TRPM3 ion channel driven Ca2+ uptake, Fluo-4 AM assay, mTRPM3alpha2 overexpressing flip-in HEK293 cells stimulated with pregnenolone sulfate
# Format: cell-based
# Settings: PS (50 μM) stimulated, cpds. 400-499
# How it was run: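 Flip-in HEK293 cells loaded with Fluo-4 AM were added to plates holding compound plus 50 μM pregnenolone sulfate in Ca2+-containing Krebs buffer. Fluorescence (ex 485/em 535 nm) read directly after cell addition; % inhibition relative to PS-stimulated vehicle and positive-control inhibitor.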
# Chain of mouse TRPM3α2 (mTRPM3) ion channel (J9SQF3 other isoform, or with tags, fused parts or gaps): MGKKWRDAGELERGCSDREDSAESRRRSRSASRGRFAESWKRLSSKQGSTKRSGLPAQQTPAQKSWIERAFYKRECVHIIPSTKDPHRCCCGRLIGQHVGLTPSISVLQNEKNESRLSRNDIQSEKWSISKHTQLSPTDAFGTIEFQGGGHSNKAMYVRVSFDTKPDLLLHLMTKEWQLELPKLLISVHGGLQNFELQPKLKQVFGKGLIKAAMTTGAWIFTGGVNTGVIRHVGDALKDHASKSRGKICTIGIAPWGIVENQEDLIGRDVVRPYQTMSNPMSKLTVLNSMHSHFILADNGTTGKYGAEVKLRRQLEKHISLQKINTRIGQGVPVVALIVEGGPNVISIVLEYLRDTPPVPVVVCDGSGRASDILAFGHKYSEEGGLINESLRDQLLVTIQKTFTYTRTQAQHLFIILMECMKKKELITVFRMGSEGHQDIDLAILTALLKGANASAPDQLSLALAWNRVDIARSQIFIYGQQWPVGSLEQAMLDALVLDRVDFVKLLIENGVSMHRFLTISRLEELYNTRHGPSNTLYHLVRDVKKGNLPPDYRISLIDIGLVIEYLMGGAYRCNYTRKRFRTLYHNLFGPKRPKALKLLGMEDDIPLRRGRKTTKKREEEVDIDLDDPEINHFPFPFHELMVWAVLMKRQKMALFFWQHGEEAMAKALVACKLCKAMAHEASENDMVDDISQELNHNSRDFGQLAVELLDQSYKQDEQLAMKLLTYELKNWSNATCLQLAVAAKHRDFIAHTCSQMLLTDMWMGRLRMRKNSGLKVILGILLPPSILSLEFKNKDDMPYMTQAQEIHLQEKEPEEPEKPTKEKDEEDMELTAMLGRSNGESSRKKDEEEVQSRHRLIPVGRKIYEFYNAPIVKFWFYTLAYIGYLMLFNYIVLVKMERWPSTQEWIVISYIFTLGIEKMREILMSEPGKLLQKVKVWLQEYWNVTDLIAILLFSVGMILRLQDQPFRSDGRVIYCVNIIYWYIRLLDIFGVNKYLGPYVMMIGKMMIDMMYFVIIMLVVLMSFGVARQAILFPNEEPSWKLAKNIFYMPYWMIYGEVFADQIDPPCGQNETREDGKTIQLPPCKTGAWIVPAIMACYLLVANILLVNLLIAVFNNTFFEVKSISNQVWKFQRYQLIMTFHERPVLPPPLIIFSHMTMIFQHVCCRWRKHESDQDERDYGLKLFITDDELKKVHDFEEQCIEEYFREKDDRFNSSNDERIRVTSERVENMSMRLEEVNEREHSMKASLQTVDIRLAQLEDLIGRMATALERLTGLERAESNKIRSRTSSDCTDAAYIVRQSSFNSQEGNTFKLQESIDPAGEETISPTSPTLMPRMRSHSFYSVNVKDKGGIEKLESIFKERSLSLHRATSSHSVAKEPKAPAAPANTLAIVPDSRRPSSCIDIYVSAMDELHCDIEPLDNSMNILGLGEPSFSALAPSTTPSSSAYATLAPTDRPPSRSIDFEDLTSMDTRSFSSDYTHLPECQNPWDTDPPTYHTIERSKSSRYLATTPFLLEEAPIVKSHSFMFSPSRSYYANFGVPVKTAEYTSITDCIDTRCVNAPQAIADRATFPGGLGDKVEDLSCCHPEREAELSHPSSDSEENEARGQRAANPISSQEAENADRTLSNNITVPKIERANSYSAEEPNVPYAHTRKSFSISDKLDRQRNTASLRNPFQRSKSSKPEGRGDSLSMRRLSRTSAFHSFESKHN
row,IC50 [nM],SMILES
1,< 1000,"Cc1oc2ccc(OCc3nccn3C)cc2c1C(=O)NC(C)(C)CO [compound 481, N-(1-hydroxy-2-methylpropan-2-yl)-2-methyl-5-((1-methyl-1H-imidazol-2-yl)methoxy)benzofuran-3-carboxamide]"
2,< 1000,"Cc1oc2ccc(OCc3ccnn3C)cc2c1C(=O)NC(C)(C)CO [compound 482, N-(1-hydroxy-2-methylpropan-2-yl)-2-methyl-5-((1-methyl-1H-pyrazol-5-yl)methoxy)benzofuran-3-carboxamide]"
3,< 1000,"Cc1oc2ccc(OCc3cccnc3O)cc2c1C(=O)N[C@@H](C)CO [compound 494, (S)-N-(1-hydroxypropan-2-yl)-5-((2-hydroxypyridin-3-yl)methoxy)-2-methylbenzofuran-3-carboxamide]"
4,< 1000,"Cc1oc2ccc(OCc3cccnc3O)cc2c1C(=O)N[C@H](C)CO [compound 495, (R)-N-(1-hydroxypropan-2-yl)-5-((2-hydroxypyridin-3-yl)methoxy)-2-methylbenzofuran-3-carboxamide]"
5,< 1000,"Cc1ncsc1COc1ccc2oc(C)c(C(=O)NCC(F)F)c2c1 [compound 498, N-(2,2-difluoroethyl)-2-methyl-5-((4-methylthiazol-5-yl)methoxy)benzofuran-3-carboxamide]"
6,< 1000,"Cc1ncc(COc2ccc3oc(C)c(C(=O)NCC(C)(F)F)c3c2)s1 [compound 499, N-(2,2-difluoropropyl)-2-methyl-5-((2-methylthiazol-5-yl)methoxy)benzofuran-3-carboxamide]"

# Second part, the compound before the results:
row,SMILES,IC50 [nM]
1,"Cc1ncc(COc2ccc3oc(C)c(C(=O)NC(C)(C)CO)c3c2)s1 [compound 483, N-(1-hydroxy-2-methylpropan-2-yl)-2-methyl-5-((2-methylthiazol-5-yl)methoxy)benzofuran-3-carboxamide]",< 1000
2,"Cc1oc2ccc(OCc3ccccn3)cc2c1C(=O)NC(C)(C)CO [compound 484, N-(1-hydroxy-2-methylpropan-2-yl)-2-methyl-5-(pyridin-2-ylmethoxy)benzofuran-3-carboxamide]",< 1000
3,"Cc1oc2ccc(OCc3cccnc3O)cc2c1C(=O)NC(C)(C)CO [compound 485, N-(1-hydroxy-2-methylpropan-2-yl)-5-((2-hydroxypyridin-3-yl)methoxy)-2-methylbenzofuran-3-carboxamide]",< 1000
4,"COc1ncccc1COc1ccc2oc(C)c(C(=O)NC(C)(C)CO)c2c1 [compound 486, N-(1-hydroxy-2-methylpropan-2-yl)-5-((2-methoxypyridin-3-yl)methoxy)-2-methylbenzofuran-3-carboxamide]",< 1000
5,"Cc1oc2ccc(OCc3ccccn3)cc2c1C(=O)N[C@@H](C)CO [compound 492, (S)-N-(1-hydroxypropan-2-yl)-2-methyl-5-(pyridin-2-ylmethoxy)benzofuran-3-carboxamide]",< 1000
6,"Cc1oc2ccc(OCc3ccccn3)cc2c1C(=O)N[C@H](C)CO [compound 493, (R)-N-(1-hydroxypropan-2-yl)-2-methyl-5-(pyridin-2-ylmethoxy)benzofuran-3-carboxamide]",< 1000
7,"COc1ncccc1COc1ccc2oc(C)c(C(=O)N[C@@H](C)CO)c2c1 [compound 496, (S)-N-(1-hydroxypropan-2-yl)-5-((2-methoxypyridin-3-yl)methoxy)-2-methylbenzofuran-3-carboxamide]",< 1000
8,"COc1ncccc1COc1ccc2oc(C)c(C(=O)N[C@H](C)CO)c2c1 [compound 497, (R)-N-(1-hydroxypropan-2-yl)-5-((2-methoxypyridin-3-yl)methoxy)-2-methylbenzofuran-3-carboxamide]",< 1000

# Same assay, conditions: PS (50 μM) stimulated, cpds. 500-599
row,IC50 [nM],SMILES
1,< 1000,"Cc1ncsc1COc1ccc2oc(C)c(C(=O)NCC(C)(F)F)c2c1 [compound 500, N-(2,2-difluoropropyl)-2-methyl-5-((4-methylthiazol-5-yl)methoxy)benzofuran-3-carboxamide]"
2,< 1000,"CC(=O)NCCNC(=O)c1c(C)oc2ccc(OCc3scnc3C)cc12 [compound 501, N-(2-acetamidoethyl)-2-methyl-5-((4-methylthiazol-5-yl)methoxy)benzofuran-3-carboxamide]"
